Measured values published in the supplement of paper PMC10307832.

Legend:
Experiment in all cases: relative viability (nuclei count vs DMSO), 5 days (fraction); higher = more cells survive
[1] = tested on: NCI-H2085
Method in brief: (§1)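 Cells from lung cancer lines were seeded into 1536-well plates and, one day later, dosed by pin tool. Treatments were either a single drug or a fixed dose of an anchor drug with five library-drug doses (not always all listed) in √10 steps. After 5 days, nuclei were stained in a one-step fixation (final 0.05% Triton X-100, 1% formaldehyde, 1 ug/ml Hoechst) and counted on 4× images, and relative viability is the treated-to-vehicle nuclei ratio, as the median of duplicate plates.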

[2] = tested on: NCI-H1792
Method in brief: as §1

[3] = tested on: LXF-289
Method in brief: as §1

[4] = tested on: COR-L 105
Method in brief: as §1

[5] = tested on: NCI-H2009
Method in brief: as §1

[6] = tested on: SK-LU-1
Method in brief: as §1

[7] = tested on: LC-2-ad
Method in brief: as §1

[8] = tested on: EPLC-272H
Method in brief: as §1

[9] = tested on: HOP-62
Method in brief: as §1

[10] = tested on: NCI-H460
Method in brief: as §1

[11] = tested on: HCC-78
Method in brief: as §1

[12] = tested on: A-427
Method in brief: as §1

[13] = tested on: HCC-366
Method in brief: as §1

[14] = tested on: NCI-H1666
Method in brief: as §1

[15] = tested on: NCI-H1915
Method in brief: as §1

[16] = tested on: LU99A
Method in brief: as §1

[17] = tested on: UMC-11
Method in brief: as §1

Compound: Cc1sc2c(c1C)C(c1ccc(Cl)cc1)=N[C@@H](CC(=O)OC(C)(C)C)c1nnc(C)n1-2 [JQ1] + CC(C)C[C@H](NC(=O)[C@H](Cc1ccccc1)NC(=O)c1cnccn1)B(O)O [Bortezomib] (partner 0.002 µM)
- relative viability ([1]; first compound 0.04 µM): 0.999
- relative viability ([1]; first compound 0.1265 µM): 0.861
- relative viability ([1]; first compound 0.4 µM): 0.893
- relative viability ([1]; first compound 1.265 µM): 0.61
- relative viability ([1]; first compound 4 µM): 0.564
- relative viability ([2]; first compound 0.04 µM): 0.953
- relative viability ([2]; first compound 0.4 µM): 0.895
- relative viability ([2]; first compound 1.265 µM): 0.657
- relative viability ([2]; first compound 4 µM): 0.456
- relative viability ([3]; first compound 0.04 µM): 0.977
- relative viability ([3]; first compound 0.1265 µM): 0.887
- relative viability ([3]; first compound 0.4 µM): 0.865
- relative viability ([3]; first compound 1.265 µM): 0.894
- relative viability ([3]; first compound 4 µM): 0.719
- relative viability ([4]; first compound 0.04 µM): 0.584
- relative viability ([4]; first compound 0.1265 µM): 0.348
- relative viability ([4]; first compound 0.4 µM): 0.3
- relative viability ([4]; first compound 1.265 µM): 0.292
- relative viability ([4]; first compound 4 µM): 0.342
- relative viability ([5]; first compound 0.04 µM): 0.947
- relative viability ([5]; first compound 0.1265 µM): 0.526
- relative viability ([5]; first compound 0.4 µM): 0.262
- relative viability ([5]; first compound 1.265 µM): 0.172
- relative viability ([5]; first compound 4 µM): 0.197
- relative viability ([6]; first compound 0.04 µM): 1.37
- relative viability ([6]; first compound 0.1265 µM): 0.693
- relative viability ([6]; first compound 0.4 µM): 0.941
- relative viability ([6]; first compound 1.265 µM): 0.28
- relative viability ([6]; first compound 4 µM): 0.205
- relative viability ([7]; first compound 0.04 µM): 0.853
- relative viability ([7]; first compound 0.1265 µM): 0.391
- relative viability ([7]; first compound 0.4 µM): 0.787
- relative viability ([7]; first compound 1.265 µM): 0.131
- relative viability ([7]; first compound 4 µM): 0.109
- relative viability ([8]; first compound 0.04 µM): 0.915
- relative viability ([8]; first compound 0.1265 µM): 0.911
- relative viability ([8]; first compound 0.4 µM): 0.989
- relative viability ([8]; first compound 1.265 µM): 0.414
- relative viability ([8]; first compound 4 µM): 0.367
- relative viability ([9]; first compound 0.04 µM): 0.447
- relative viability ([9]; first compound 0.1265 µM): 0.641
- relative viability ([9]; first compound 0.4 µM): 0.515
- relative viability ([9]; first compound 1.265 µM): 0.11
- relative viability ([9]; first compound 4 µM): 0.111
- relative viability ([10]; first compound 0.04 µM): 1.05
- relative viability ([10]; first compound 0.1265 µM): 0.611
- relative viability ([10]; first compound 0.4 µM): 0.456
- relative viability ([10]; first compound 1.265 µM): 0.224
- relative viability ([10]; first compound 4 µM): 0.212
- relative viability ([11]; first compound 0.04 µM): 0.53
- relative viability ([11]; first compound 0.1265 µM): 0.453
- relative viability ([11]; first compound 0.4 µM): 0.231
- relative viability ([11]; first compound 1.265 µM): 0.19
- relative viability ([11]; first compound 4 µM): 0.172
- relative viability ([12]; first compound 0.04 µM): 0.969
- relative viability ([12]; first compound 0.1265 µM): 1.04
- relative viability ([12]; first compound 0.4 µM): 0.979
- relative viability ([12]; first compound 1.265 µM): 0.682
- relative viability ([12]; first compound 4 µM): 0.474
- relative viability ([13]; first compound 0.04 µM): 1.08
- relative viability ([13]; first compound 0.4 µM): 1.03
- relative viability ([13]; first compound 1.265 µM): 0.585
- relative viability ([13]; first compound 4 µM): 0.23
- relative viability ([14]; first compound 0.04 µM): 0.658
- relative viability ([14]; first compound 0.1265 µM): 0.698
- relative viability ([14]; first compound 0.4 µM): 0.543
- relative viability ([14]; first compound 1.265 µM): 0.428
- relative viability ([14]; first compound 4 µM): 0.443
- relative viability ([15]; first compound 0.04 µM): 1.02
- relative viability ([15]; first compound 0.1265 µM): 0.706
- relative viability ([15]; first compound 0.4 µM): 0.961
- relative viability ([15]; first compound 1.265 µM): 0.678
- relative viability ([15]; first compound 4 µM): 0.642
- relative viability ([16]; first compound 0.04 µM): 1.32
- relative viability ([16]; first compound 0.1265 µM): 0.8
- relative viability ([16]; first compound 0.4 µM): 0.802
- relative viability ([16]; first compound 1.265 µM): 0.426
- relative viability ([16]; first compound 4 µM): 0.265
- relative viability ([17]; first compound 0.04 µM): 0.708
- relative viability ([17]; first compound 0.1265 µM): 0.522
- relative viability ([17]; first compound 0.4 µM): 0.367
- relative viability ([17]; first compound 1.265 µM): 0.216
- relative viability ([17]; first compound 4 µM): 0.136

Compound: COc1cc2nccc(Oc3ccc(NC(=O)Nc4cc(C)on4)c(Cl)c3)c2cc1OC [Tivozanib] + CC(C)C[C@H](NC(=O)[C@H](Cc1ccccc1)NC(=O)c1cnccn1)B(O)O [Bortezomib] (partner 0.002 µM)
- relative viability ([1]; first compound 0.005 µM): 1.02
- relative viability ([1]; first compound 0.01581 µM): 1.1
- relative viability ([1]; first compound 0.05 µM): 1.07
- relative viability ([1]; first compound 0.1581 µM): 1.04
- relative viability ([1]; first compound 0.5 µM): 0.846
- relative viability ([2]; first compound 0.005 µM): 0.961
- relative viability ([2]; first compound 0.01581 µM): 0.967
- relative viability ([2]; first compound 0.05 µM): 0.965
- relative viability ([2]; first compound 0.1581 µM): 0.989
- relative viability ([2]; first compound 0.5 µM): 0.947
- relative viability ([3]; first compound 0.005 µM): 0.952
- relative viability ([3]; first compound 0.01581 µM): 0.956
- relative viability ([3]; first compound 0.05 µM): 0.959
- relative viability ([3]; first compound 0.1581 µM): 1.03
- relative viability ([3]; first compound 0.5 µM): 0.964
- relative viability ([4]; first compound 0.01581 µM): 0.751
- relative viability ([4]; first compound 0.05 µM): 0.759
- relative viability ([4]; first compound 0.1581 µM): 0.702
- relative viability ([4]; first compound 0.5 µM): 0.681
- relative viability ([5]; first compound 0.005 µM): 0.945
- relative viability ([5]; first compound 0.01581 µM): 1.02
- relative viability ([5]; first compound 0.05 µM): 1.04
- relative viability ([5]; first compound 0.1581 µM): 1.04
- relative viability ([5]; first compound 0.5 µM): 0.732
- relative viability ([6]; first compound 0.005 µM): 0.931
- relative viability ([6]; first compound 0.01581 µM): 1.26
- relative viability ([6]; first compound 0.05 µM): 1.2
- relative viability ([6]; first compound 0.1581 µM): 0.784
- relative viability ([6]; first compound 0.5 µM): 0.907
- relative viability ([7]; first compound 0.005 µM): 0.951
- relative viability ([7]; first compound 0.01581 µM): 1.04
- relative viability ([7]; first compound 0.05 µM): 0.971
- relative viability ([7]; first compound 0.1581 µM): 0.867
- relative viability ([7]; first compound 0.5 µM): 0.843
- relative viability ([8]; first compound 0.005 µM): 0.967
- relative viability ([8]; first compound 0.01581 µM): 0.856
- relative viability ([8]; first compound 0.05 µM): 0.949
- relative viability ([8]; first compound 0.1581 µM): 0.727
- relative viability ([8]; first compound 0.5 µM): 0.676
- relative viability ([9]; first compound 0.005 µM): 0.708
- relative viability ([9]; first compound 0.01581 µM): 0.659
- relative viability ([9]; first compound 0.05 µM): 0.548
- relative viability ([9]; first compound 0.1581 µM): 0.565
- relative viability ([9]; first compound 0.5 µM): 0.819
- relative viability ([10]; first compound 0.005 µM): 1.13
- relative viability ([10]; first compound 0.01581 µM): 1.04
- relative viability ([10]; first compound 0.05 µM): 1
- relative viability ([10]; first compound 0.1581 µM): 1.12
- relative viability ([10]; first compound 0.5 µM): 1.03
- relative viability ([11]; first compound 0.005 µM): 0.383
- relative viability ([11]; first compound 0.01581 µM): 0.496
- relative viability ([11]; first compound 0.05 µM): 0.57
- relative viability ([11]; first compound 0.1581 µM): 0.549
- relative viability ([11]; first compound 0.5 µM): 0.452
- relative viability ([12]; first compound 0.005 µM): 0.988
- relative viability ([12]; first compound 0.01581 µM): 1.03
- relative viability ([12]; first compound 0.05 µM): 0.962
- relative viability ([12]; first compound 0.1581 µM): 0.893
- relative viability ([12]; first compound 0.5 µM): 0.932
- relative viability ([13]; first compound 0.005 µM): 1.01
- relative viability ([13]; first compound 0.01581 µM): 1.05
- relative viability ([13]; first compound 0.05 µM): 1.06
- relative viability ([13]; first compound 0.1581 µM): 1.05
- relative viability ([13]; first compound 0.5 µM): 1.05
- relative viability ([14]; first compound 0.005 µM): 0.746
- relative viability ([14]; first compound 0.01581 µM): 0.792
- relative viability ([14]; first compound 0.05 µM): 0.835
- relative viability ([14]; first compound 0.1581 µM): 0.74
- relative viability ([14]; first compound 0.5 µM): 0.875
- relative viability ([15]; first compound 0.005 µM): 0.945
- relative viability ([15]; first compound 0.01581 µM): 0.986
- relative viability ([15]; first compound 0.05 µM): 0.952
- relative viability ([15]; first compound 0.1581 µM): 0.921
- relative viability ([15]; first compound 0.5 µM): 0.884
- relative viability ([16]; first compound 0.005 µM): 1.15
- relative viability ([16]; first compound 0.01581 µM): 1.07
- relative viability ([16]; first compound 0.05 µM): 1.29
- relative viability ([16]; first compound 0.5 µM): 1.06
- relative viability ([17]; first compound 0.005 µM): 0.579
- relative viability ([17]; first compound 0.01581 µM): 0.723
- relative viability ([17]; first compound 0.05 µM): 0.911
- relative viability ([17]; first compound 0.5 µM): 0.668
